Assay results: patent EP1079840B1, “SYNERGISTIC COMPOSITION OF INULIN AND AN ANTI-CANCER DRUG FOR USE IN THE TREATMENT OF CANCER” (Tiense Suikerraffinaderij N.V. (Raffinerie Tirlemontoise …, priority 1998, dated 1999)

Tested on: ascitic form of a transplantable mouse liver tumor (TLT)
Assay: Survival (increase of life span) of mice bearing the intraperitoneally transplanted ascitic TLT tumor
Type: in vivo, NMRI male mice
Conditions: for therapeutic effect (character of chemotherapy potentiating effect): cytotoxic drug combined with dietary FOS or inulin
From the text: Viable, neoplastic cells (10^6) from the ascitic form of a transplantable mouse liver tumor (TLT) (Taper, 1966 and Cappucino, 1966) were intraperitoneally transplanted into 12 per group young adult NMRI male mice weighing about 30 g, supplied by "Animalerie Facultaire", UCL, Brussels. Mice of the experimental groups were fed with a basal diet supplemented with 15 % FOS or inulin starting 7 days before tumor transplantation up to the end of the experiment. Control animals received the basal diet for experimental animals AO4 furnished by UAR, Villemoisson sur Orge, France, and water ad libitum.
A single, subtherapeutic dose of cytotoxic drugs was intraperitoneally injected 48 hours after intraperitoneal TLT tumor transplantation at following doses: endoxan 80 mg/kg; adriamycin 0.1 mg/kg; oncovin 0.5 mg/kg and 5-fluorouracil 40 mg/kg.
The criteria for the evaluation of results were the mortality rates expressed by mean survival time (MST) and the percentage of increase of life span (ILS) in experimental groups compared with the controls, calculated according to the NCI instructions (Geron et al., 1972). The results of each experiment were confirmed by another experiment performed at another time and were cumulatively calculated (as presented in Table 1). The results concerning the survival rates of mice bearing the ascitic form of a TLT tumor, observed in 2 separately performed experiments on each type of anti-cancer drug (12 mice per group), are cumulatively presented in Table 1 below.
In a further experiment, carried out in a similar manner as the previous experiment, the effects were examined of a composition according to the invention, containing a combination of the anti-metabolite anti-cancer drug methotrexate and inulin or FOS, in comparison with the effects of the single components. The effects were evaluated via the survival criteria of N.M.RI mice bearing ascitic TLT tumors, treated with a single i.p. dose of 20 mg/kg methotrexate (10 investigated mice in each group) and the results are presented in Table 2 below.

[1] = increase of life span vs own untreated control group, 15 % FOS or inulin in diet from 7 days before transplantation, single i.p. dose 48 hours after transplantation: endoxan 80 mg/kg, adriamycin 0.1 mg/kg, oncovin 0.5 mg/kg, 5-fluorouracil 40 mg/kg, 2 experiments cumulated

SMILES | therapeutic effect (character of chemotherapy potentiating effect) | ILS (%) [1] [%] | ILS (%) (Table 2, methotrexate single i.p. dose of 20 mg/kg, dietary FOS or inulin, 10 mice in each group)
O=c1[nH]cc(F)c(=O)[nH]1 [5-Fluorouracil, 5-fluorouracil] | synergistic | 18.75 | –
COc1cccc2c1C(=O)c1c(O)c3c(c(O)c1C2=O)C[C@@](O)(C(=O)CO)C[C@@H]3O[C@H]1C[C@H](N)[C@H](O)[C@H](C)O1 [Adriamycin, adriamycin] | additive | 14.7 | –
O=P1(N(CCCl)CCCl)NCCCO1 (stereo not drawn) [Endoxan, cyclophosphamide] | additive | 0 | –
CC[C@]1(O)C[C@H]2CN(CCc3c([nH]c4ccccc34)[C@@](C(=O)OC)(c3cc4c(cc3OC)N(C=O)[C@H]3[C@@](O)(C(=O)OC)[C@H](OC(C)=O)[C@]5(CC)C=CCN6CC[C@]43[C@@H]65)C2)C1 [Oncovin, vincristine sulphate] | additive | 33.33 | –
CN(Cc1cnc2nc(N)nc(N)c2n1)c1ccc(C(=O)N[C@@H](CCC(=O)O)C(=O)O)cc1 [methotrexate] | – | – | 2
